Data: paper PMC5566973 (Frontiers in Pharmacology, 2017)
“And” between values parts separate entries of the source, which are not always exact repeats. Equal entries are not always repeated.

How the values were obtained:
[1] = Pharmacokinetics in rats after intravenous and intragastric administration; conditions: for bioavailability: F%
Description: Fifty-six pathogen-free Sprague-Dawley adult rats comprising 28 males and 28 females (weighing within the range of 200–250 g) were obtained from Drug Safety Evaluation and Research Center of Shanghai University of Traditional Chinese Medicine. Animals were raised under an environmentally controlled breeding room for 7 days before commencing the experiments. Animals were housed in a well-lighted air-conditioned room (25 ± 1°C) under standard environmental conditions (12 h light-dark cycles) and given free access to rodent chow and tap water prior to the study. Rats were fasted for 12 h and provided free access to water prior to the experiments. All animal-use procedures were in accordance with the regulations for animal experimentation issued by the State Committee of Science and Technology of the People's Republic of China on 14 November 1988 and approved by the Animal Ethics Committee of Shanghai University of Traditional Chinese Medicine (No. SUTCM-2011-1107; Approval date: 10 November, 2011).
Forty rats with 20 males and 20 females were randomly divided into five groups of eight rats in each. […] Approximately 0.25 mL of blood sample was collected from the angular vein of each conscious rat and transferred into heparinized tubes at 0 (predose), 0.03, 0.08, 0.25, 0.5, 0.75, 1.0, 2.0, 4.0, 8.0, 12.0, and 24.0 h after administration. Rats had free access to water after 4.0 h of blood sample collection. Serial blood samples were immediately centrifuged at 3,000 rpm for 15 min, and 100 μL of the supernatant plasma layer was transferred into another new 1.5 mL centrifuge tube and stored at −80°C until analysis.
The maximum peak concentration (Cmax) and time of maximum plasma concentration (Tmax) were obtained directly from the observed concentration vs. time data.
(5) F=(AUC0−∞,oral×Doseiv)/(AUC0−∞,iv×Doseoral)×100%

[2] = Bidirectional transport in MDCK cell monolayers with selective transporter inhibitors or substrates; format: in vitro ADME, canine; conditions: dog, Control (no inhibitor or substrate), read-out: ER
Description: (§1) Caco-2, MDCK and MDCK-MRP2 cells were donated by Prof. Yan Xie and Yueming Ma from Shanghai University of Traditional Chinese Medicine. The cells were grown in culture dishes (Corning® Costar, Cambridge, MA, USA) using DMEM supplemented with 10% FBS, 1% NEAA and 1% penicillin-streptomycin solution. The cells were cultured in 5% CO2 and […] with 90% relative humidity at 37°C. The medium was replaced every other day during incubation. The cells were passaged every 3–4 days between 70 and 80% confluence at a 1:5 split ratio using 0.25% trypsin-EDTA. For the transport experiments, the cells from passages between 30 and 45 were seeded at 1 × 10^5 cells/cm^2 onto permeable polycarbonate inserts (0.45 μm pore size, seeding surface of 0.6 cm^2, Millipore, MA, USA) in 24-well plastic plates. The media in the culture plates were changed every other day for the first week after seeding and were replaced daily afterward. […] The cells were used for the transport experiments 21–28 (Caco-2) or 5–7 (MDCK and MDCK-MRP2) days after seeding, and only monolayers with a TEER-value above 420 Ω cm^2 were used during the studies.
(§2) The apical (AP) and basolateral (BL) sides are typical of polarized Caco-2, MDCK and MDCK-MRP2 epithelial cells. Before the experiments, the polarized cell monolayers were washed twice with warm HBSS solution and subsequently preincubated (37°C, 30 min). Afterward, HBSS solution on both sides of the cell monolayers was removed using a mini desktop vacuum pump. […] The final DMSO concentration in the HBSS or drug mixture was below 0.5%. The monolayers were incubated at 37°C, and 100 μL samples were taken at 30, 60, 90, and 120 min from the acceptor compartment and immediately replaced with the same volume of prewarmed fresh blank HBSS. TEER measurements for assessing the membrane integrity took place before and after the experiments.
(§3) The apparent permeability coefficients (Papp) and ER were calculated as Equations (2) and (3): […]
(§4) where dQ/dt is the steady-state flux, A is the membrane surface area, and C0 is the initial drug concentration in the donor compartment. PappBA is the Papp-value measured in BL to AP direction and PappAB is the Papp-value measured in AP to BL direction. It indicated the involvement of an active transport process when the ER-value is above 1.5 (Hubatsch et al., [2007]).

[3] = system: MCTs; assay: as above; format: in vitro ADME, canine; conditions: dog, with phloretin 0.3 mM, + Phloretin 0.3 mM (MCTs)
Description: as §1, §2, §3, §4

[4] = system: OATPs; assay: as above; format: in vitro ADME, canine; conditions: dog, with ES 0.05 mM (50 μM), + ES 0.05 mM (OATPs)
Description: as §1, §2, §3, §4

[5] = molecular target: T1, human MDR1 (Homo sapiens, UniProt P08183); assay: Vesicular transport assay, Sf9 membrane vesicles expressing human MDR1; format: in vitro ADME; conditions: 1 μM, MgATP vs MgAMP
T1 construct: purchased GenoMembrane (Kanagawa, Japan); host or cells: Sf9
T1 sequence (P08183 whole entry): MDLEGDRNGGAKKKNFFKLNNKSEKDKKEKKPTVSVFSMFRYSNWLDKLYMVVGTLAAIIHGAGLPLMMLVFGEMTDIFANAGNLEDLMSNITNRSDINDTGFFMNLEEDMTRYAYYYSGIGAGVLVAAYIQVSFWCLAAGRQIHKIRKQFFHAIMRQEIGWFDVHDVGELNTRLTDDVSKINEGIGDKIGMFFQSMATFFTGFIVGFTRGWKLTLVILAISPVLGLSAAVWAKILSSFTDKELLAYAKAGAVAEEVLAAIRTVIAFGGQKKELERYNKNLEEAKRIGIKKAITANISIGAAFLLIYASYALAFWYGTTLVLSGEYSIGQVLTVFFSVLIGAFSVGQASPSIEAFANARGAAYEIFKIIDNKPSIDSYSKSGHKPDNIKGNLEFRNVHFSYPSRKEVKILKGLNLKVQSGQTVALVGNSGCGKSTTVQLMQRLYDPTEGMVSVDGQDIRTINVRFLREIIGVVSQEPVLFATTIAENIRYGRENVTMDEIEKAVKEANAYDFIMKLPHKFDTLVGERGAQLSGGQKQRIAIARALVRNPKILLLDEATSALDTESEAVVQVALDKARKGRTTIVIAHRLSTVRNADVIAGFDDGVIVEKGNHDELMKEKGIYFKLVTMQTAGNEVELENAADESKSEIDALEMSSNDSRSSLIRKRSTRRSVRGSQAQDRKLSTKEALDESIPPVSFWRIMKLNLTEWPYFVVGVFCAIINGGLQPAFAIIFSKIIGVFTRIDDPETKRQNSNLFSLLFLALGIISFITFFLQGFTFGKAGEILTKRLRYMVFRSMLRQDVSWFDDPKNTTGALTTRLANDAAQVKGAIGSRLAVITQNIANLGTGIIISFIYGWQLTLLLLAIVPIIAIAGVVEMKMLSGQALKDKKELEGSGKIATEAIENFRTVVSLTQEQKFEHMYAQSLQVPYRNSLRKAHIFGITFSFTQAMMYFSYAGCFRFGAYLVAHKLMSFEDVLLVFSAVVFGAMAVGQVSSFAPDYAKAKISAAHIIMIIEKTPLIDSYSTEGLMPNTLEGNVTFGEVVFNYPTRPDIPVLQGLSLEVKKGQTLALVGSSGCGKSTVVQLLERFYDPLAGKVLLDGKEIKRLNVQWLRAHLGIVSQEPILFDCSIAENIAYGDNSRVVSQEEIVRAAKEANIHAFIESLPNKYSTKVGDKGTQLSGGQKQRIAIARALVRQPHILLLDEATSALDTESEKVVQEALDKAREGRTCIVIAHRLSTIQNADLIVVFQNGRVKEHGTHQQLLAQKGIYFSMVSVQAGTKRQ
Description: The vesicular transport assay was implemented as described in the GenoMembrane™ vesicular transport kit protocol (GenoMembrane, Kanagawa, Japan) with minor changes. Briefly, vesicle stocks were thawed and diluted with assay buffer (50 mM MOPS-Tris, 70 mM KCl, and 7.5 mM MgCl2). […] MgAMP instead of MgATP was used as a control. Apart from these, 4 mM glutathione was also included in BCRP and MRP2 assays. Transport was terminated with ice cold assay buffer, and then samples were quickly transferred to a filter plate. Wells were immediately washed 5 times with 200 μL assay buffer and dried. The vesicles on the plate were dissolved in 50 μL of 80% methanol and centrifuged at 2,000 rpm for 2 min after collection, and repeating the above procedures. Mixed the two filtrates together and added the pre-cooled methanol. After centrifugation at 12,000 rpm for 5 min at 4°C, a 5 μL aliquot of supernatant was injected into the UPLC-ESI-MS/MS system for analysis. Furthermore, the uptake of NMQ (MDR1), LY (BCRP), and E217βG (MRP2) was used to evaluate the activity of specific vesicles.

[6] = both, Sprague-Dawley, rat, in vivo, iv, 3.3 mg/kg
[7] = both, Sprague-Dawley, rat, in vivo, iv, 3.3 mg/kg, rats, i.v. 3.3 mg/kg
[8] = both, Sprague-Dawley, rat, in vivo, po, 40 mg/kg
[9] = both, Sprague-Dawley, rat, in vivo, po, 40 mg/kg, rats, harmine p.o. 40.0 mg/kg co-administered with probenecid 20.0 mg/kg
[10] = both, Sprague-Dawley, rat, in vivo, po, 40 mg/kg, rats, p.o. 40.0 mg/kg
[11] = both, Sprague-Dawley, rat, in vivo, po, 40 mg/kg, rats, p.o. 40.0 mg/kg vs i.v. 3.3 mg/kg
[12] = rats, harmine p.o. 40.0 mg/kg co-administered with probenecid 20.0 mg/kg

Compound | Vd [1, 6] | clearance [1, 6] | k el [1, 6] | AUC(0-t) [1, 7] | AUC(0-inf) [1, 7] | Cmax [1, 7] | MRT [1, 7] | Tmax [1, 7] | k el [1, 8] | AUC(0-t) [1, 10] | AUC(0-inf) [1, 10] | Cmax [1, 10] | bioavailability [1, 11] | MRT [1, 10] | Tmax [1, 10] | Ka ([1]; rats, i.v. 3.3 mg/kg) | CL ([1]; rats, p.o. 40.0 mg/kg) | Ka ([1]; rats, p.o. 40.0 mg/kg) | Vd ([1]; rats, p.o. 40.0 mg/kg) | other results
COc1ccc2c(c1)[nH]c1c(C)nccc12 [Harmine] | 10.4 ± 5.75 L/kg | 40.8 mL/min/kg | 8.33e-05 s⁻¹ | 1260 ± 238 ng·h/mL | 1270 ± 239 ng·h/mL | 2320 ± 663 ng/mL | 1.01 ± 0.3 h | 0.03 h | 1.39e-05 s⁻¹ | 154 ± 46.5 ng·h/mL | 184 ± 57.4 ng·h/mL | 67 ± 34.3 ng/mL | 1.09 ± 0.27% | 4.41 ± 1.03 h | 0.56 ± 0.13 h | 2.71 ± 1.24 h⁻¹ | 3890.6588 ± 936.7433 mL/min/kg | 0.63 ± 0.42 h⁻¹ | 4761.64239 ± 1571.7721 L/kg | AUC(0-t) [1, 9]: 292 ± 70.4 ng·h/mL; AUC(0-inf) [1, 9]: 349 ± 76.7 ng·h/mL; Cmax [1, 9]: 98.9 ± 31.1 ng/mL; bioavailability [1, 9]: 2.14 ± 0.59%; MRT [1, 9]: 13.7 ± 3.54 h; Tmax [1, 9]: 0.79 ± 0.12 h; increase of F-value after probenecid co-administration ([1]; rats, harmine p.o. 40.0 mg/kg + probenecid 20.0 mg/kg vs harmine alone): 1.96 folds; CL [1, 12]: 1966.7387 ± 409.9968 mL/min/kg; Ka [1, 12]: 0.73 ± 0.46 h⁻¹; Vd [1, 12]: 2464.53513 ± 990.15463 L/kg
COc1ccc2c3c([nH]c2c1)C(C)=NCC3 [Harmaline] | 94.1 ± 102 L/kg | 173 mL/min/kg | 6.39e-05 s⁻¹ | 299 ± 64.3 ng·h/mL | 307 ± 64.3 ng·h/mL | 258 ± 64.9 ng/mL | 2.53 ± 1.42 h | 0.03 h | 5.56e-05 s⁻¹ | 644 ± 328 ng·h/mL | 666 ± 322 ng·h/mL | 118 ± 59 ng/mL | 17.1 ± 10.1% | 6.24 ± 3.18 h | 1.76 ± 1.11 h | 1.26 ± 0.83 h⁻¹ | 1244.488 ± 688.6782 mL/min/kg | 0.71 ± 0.38 h⁻¹ | 705.97445 ± 595.53126 L/kg | efflux ratio at 120 min, 2 μM [2]: 1.03; Papp B→A at 120 min, 2 μM [3]: 23.3 ± 1.4 ×10⁻⁶ cm/s; efflux ratio at 120 min, 2 μM ([3]; read-out: ER): 1.15; Papp A→B at 120 min, 2 μM [4]: 19.4 ± 3.23 ×10⁻⁶ cm/s; efflux ratio at 120 min, 2 μM ([4]; read-out: ER): 1.07; T1/2a ([1]; rats, i.v. 3.3 mg/kg): 1.24 ± 1.02 h; T1/2e ([1]; rats, i.v. 3.3 mg/kg): 4.05 ± 1.39 h; T1/2d ([1]; rats, i.v. 3.3 mg/kg): 1.57 ± 1.25 h; T1/2a ([1]; rats, p.o. 40.0 mg/kg): 1.74 ± 1.13 h; T1/2e ([1]; rats, p.o. 40.0 mg/kg): 5.13 ± 1.52 h; T1/2d ([1]; rats, p.o. 40.0 mg/kg): 2.40 ± 1.20 h; uptake ratio (UR) [5]: < 2.00 and 1.97
